Assay results as given in US6608047B2, “Use of low dosage amount of spironolactone for treatment of cardiovascular disease” (Pharmacia Corporation, priority 1995, dated 2003).

Key:
[1] = system: plasma aldosterone; conditions: hypertensive patients; J. Staessen et al 1981; cited from earlier work
[2] = system: patients with symptomatic heart failure; test: Human clinical trial (spironolactone dose-ranging study): clinical laboratory values and neurohormones; conditions: for Creatinine, Week 12 Mean Change / Hematocrit, Week 12 Mean Change / Hemoglobin, Week 12 Mean Change / N-Terminal ANF, Week 12 Mean Change / PRA, Week 12 Mean Change / Potassium, Week 12 Mean Change / Sodium, Week 12 Mean Change / Urinary aldosterone, Week 12 Mean Change: Week 12 vs baseline
[3] = system: myocardial fibrosis; conditions: cited from earlier work
[4] = system: hypertensive-rat cohort; conditions: spironolactone sub-cutaneously; C.G. Brilla et al 1993; cited from earlier work
[5] = system: patients with symptomatic heart failure; test: Human clinical trial (spironolactone dose-ranging study): hyperkalemia, adverse events, hospitalizations, deaths
Text: (§1) All statistical methods were two-sided.
In this analysis, the risk ratio can be thought of as the probability that the patient with the risk factor will develop hyperkalemia, relative to the probability that a patient without the risk factor will develop it.

[6] = system: patients with symptomatic heart failure; test: Human clinical trial (spironolactone dose-ranging study): cardiac assessments, weight and vital signs; type: in vivo
Text: as §1

C[C@H](CS)C(=O)N1CCC[C@H]1C(=O)O [Captopril, captopril]
Plasma aldosterone despite continued ACE inhibition [1]: gradual return of plasma aldosterone to baseline levels

CC(=O)S[C@@H]1CC2=CC(=O)CC[C@]2(C)[C@H]2CC[C@@]3(C)[C@@H](CC[C@@]34CCC(=O)O4)[C@H]12 [Spironolactone, 17-hydroxy-7α-mercapto-3-oxo-17α-pregn-4-ene-21-carboxylic acid γ-lactone acetate]
Creatinine, Week 12 Mean Change ([2]; 12.5 mg/d): 6.83 µmol/L | Hematocrit, Week 12 Mean Change ([2]; 12.5 mg/d): 0.00% | Hemoglobin, Week 12 Mean Change ([2]; 12.5 mg/d): 0.12 mmol/L/Fe | N-Terminal ANF, Week 12 Mean Change ([2]; 12.5 mg/d): -287.30 pmol/L | PRA, Week 12 Mean Change ([2]; 12.5 mg/d): 9.90 NgAngl/L/s | Potassium, Week 12 Mean Change ([2]; 12.5 mg/d): 0.18 mmol/L | Sodium, Week 12 Mean Change ([2]; 12.5 mg/d): -1.61 mmol/L | Urinary aldosterone, Week 12 Mean Change ([2]; 12.5 mg/d): 4.21 nmol/D | Creatinine, Week 12 Mean Change ([2]; 25 mg/d): 9.30 µmol/L | Hematocrit, Week 12 Mean Change ([2]; 25 mg/d): −0.02% | Hemoglobin, Week 12 Mean Change ([2]; 25 mg/d): −0.20 mmol/L/Fe | N-Terminal ANF, Week 12 Mean Change ([2]; 25 mg/d): -294.60 pmol/L | PRA, Week 12 Mean Change ([2]; 25 mg/d): 9.33 NgAngl/L/s | Potassium, Week 12 Mean Change ([2]; 25 mg/d): 0.37 mmol/L | Sodium, Week 12 Mean Change ([2]; 25 mg/d): -1.85 mmol/L | Urinary aldosterone, Week 12 Mean Change ([2]; 25 mg/d): 4.27 nmol/D | Creatinine, Week 12 Mean Change ([2]; 50 mg/d): 14.06 µmol/L | Hematocrit, Week 12 Mean Change ([2]; 50 mg/d): −0.02% | Hemoglobin, Week 12 Mean Change ([2]; 50 mg/d): −0.31 mmol/L/Fe | N-Terminal ANF, Week 12 Mean Change ([2]; 50 mg/d): -351.30 pmol/L | PRA, Week 12 Mean Change ([2]; 50 mg/d): 13.18 NgAngl/L/s | Potassium, Week 12 Mean Change ([2]; 50 mg/d): 0.51 mmol/L | Sodium, Week 12 Mean Change ([2]; 50 mg/d): -2.52 mmol/L | Urinary aldosterone, Week 12 Mean Change ([2]; 50 mg/d): 8.11 nmol/D | Creatinine, Week 12 Mean Change ([2]; 75 mg/d): 21.90 µmol/L | Hematocrit, Week 12 Mean Change ([2]; 75 mg/d): −0.03% | Hemoglobin, Week 12 Mean Change ([2]; 75 mg/d): −0.46 mmol/L/Fe | N-Terminal ANF, Week 12 Mean Change ([2]; 75 mg/d): -370.60 pmol/L | PRA, Week 12 Mean Change ([2]; 75 mg/d): 10.23 NgAngl/L/s | Potassium, Week 12 Mean Change ([2]; 75 mg/d): 0.58 mmol/L | Sodium, Week 12 Mean Change ([2]; 75 mg/d): -3.37 mmol/L | Urinary aldosterone, Week 12 Mean Change ([2]; 75 mg/d): 11.13 nmol/D | Change from baseline in PRA, dose-response ([2]; Day 9, Week 4 and Week 12, higher doses): greater increases in PRA | N-Terminal Atrial Natriuretic Factor (ANF), change from baseline ([2]; all active treatments, all treatment visits): decreases from baseline | Urinary aldosterone excretion, change from baseline ([2]; all treatment groups, 12 week visit): mean increases from baseline | Change from baseline in serum potassium, dose-response ([2]; all treatment period visits, higher doses): larger increases in potassium | Myocardial fibrosis in animal models ([3]; D. Klug et al 1993): prevents myocardial fibrosis | Fibrosis in animal models ([3]; irrespective of left ventricular hypertrophy and hypertension, C.G. Brilla et al 1993): prevent fibrosis | Fibrosis in the hypertensive-rat cohort [4]: prevent fibrosis | Deaths during the drug treatment period ([5]; all dose groups, 12 weeks): No deaths were reported | Hyperkalemia incidence, dose-response ([5]; human, in vivo): clear dose-response in term of incidence | Patients died within 30 days after the study was completed ([5]; previously at the 50 mg dose): Three | Mean Change in Supine diastolic BP from Baseline to Week 12 ([6]; 12.5 mg/d): −0.19 (9.13) | Mean Change in Supine pulse from Baseline to Week 12 ([6]; 12.5 mg/d): −3.70 (9.56) BPM | Mean Change in Supine systolic BP from Baseline to Week 12 ([6]; 12.5 mg/d): 1.84 (11.82) | Mean Change in Weight from Baseline to Week 12 ([6]; 12.5 mg/d): 0.59 (3.00) | Mean systolic and diastolic blood pressure (standing and supine) ([6]; 25 mg, 50 mg and 75 mg groups, all visits): decreases in mean systolic and diastolic blood pressure | Mean Change in Supine diastolic BP from Baseline to Week 12 ([6]; 25 mg/d): −2.74 (9.57) | Mean Change in Supine pulse from Baseline to Week 12 ([6]; 25 mg/d): −1.40 (10.00) BPM | Mean Change in Supine systolic BP from Baseline to Week 12 ([6]; 25 mg/d): −4.46 (13.97) | Mean Change in Weight from Baseline to Week 12 ([6]; 25 mg/d): −0.16 (3.02) | Mean Change in Supine diastolic BP from Baseline to Week 12 ([6]; 50 mg/d): −5.11 (11.11) | Mean Change in Supine pulse from Baseline to Week 12 ([6]; 50 mg/d): −3.21 (11.27) BPM | Mean Change in Supine systolic BP from Baseline to Week 12 ([6]; 50 mg/d): −7.04 (15.83) | Mean Change in Weight from Baseline to Week 12 ([6]; 50 mg/d): 0.62 (2.05) | Changes from baseline in body weight ([6]; 75 mg dose group, Day 9 and Week 4): more weight loss than other patients | Mean Change in Supine diastolic BP from Baseline to Week 12 ([6]; 75 mg/d): −5.91 (9.05) | Mean Change in Supine pulse from Baseline to Week 12 ([6]; 75 mg/d): −1.07 (13.79) BPM | Mean Change in Supine systolic BP from Baseline to Week 12 ([6]; 75 mg/d): −5.68 (15.62) | Mean Change in Weight from Baseline to Week 12 ([6]; 75 mg/d): −0.81 (2.70) | Sodium retention score, dose response ([6]; Day 9 (p=0.019), not seen at later visits): more reduction in sodium retention score | Pulse in the supine position, dose response ([6]; Week 4 (p-value=0.045)): greater decreases in pulse in the supine position at higher doses | Changes in loop diuretic therapy ([6]; Week 8 (p=0.004), higher doses vs placebo, not observed at Week 12): decreases in the loop diuretic dose | NYHA Class ([6]; spironolactone groups vs placebo, difference not statistically significant): trend toward improvement
